{"source": "the supplement of paper PMC10307832", "assay_in_all_cases": "relative viability (nuclei count vs DMSO), 5 days (fraction); higher = more cells survive", "key": {"XMD14-99 + Palbociclib": {"compound": "CN1CCN(CC1)C2=CC(=C(C=C2)NC3=NC(=C(S3)C(=O)C4=C(C=CC=C4Cl)Cl)N)OC [XMD14-99] + CC(=O)c1c(C)c2cnc(Nc3ccc(N4CCNCC4)cn3)nc2n(C2CCCC2)c1=O [Palbociclib] (partner 0.5 µM)", "how_it_was_run": "(§1)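 Lung cancer cell lines were pin-tool dosed in 1536-well plates on the day after seeding, with either a lone drug or a fixed anchor-drug dose plus five library-drug doses (not always all listed) in √10 steps. Nuclei were counted on 4× images after 5 days. Relative viability is the ratio of treated-well to vehicle-well nuclei counts, with each value a median of duplicate plates.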"}, "XMD14-99 + Decitabine": {"compound": "CN1CCN(CC1)C2=CC(=C(C=C2)NC3=NC(=C(S3)C(=O)C4=C(C=CC=C4Cl)Cl)N)OC [XMD14-99] + Nc1ncn([C@H]2C[C@H](O)[C@@H](CO)O2)c(=O)n1 [Decitabine] (partner 2 µM)", "how_it_was_run": "as §1"}, "XMD14-99 + Dasatinib": {"compound": "CN1CCN(CC1)C2=CC(=C(C=C2)NC3=NC(=C(S3)C(=O)C4=C(C=CC=C4Cl)Cl)N)OC [XMD14-99] + Cc1nc(Nc2ncc(C(=O)Nc3c(C)cccc3Cl)s2)cc(N2CCN(CCO)CC2)n1 [Dasatinib] (partner 0.075 µM)", "how_it_was_run": "as §1"}, "AZD1208 + Alpelisib": {"compound": "N[C@@H]1CCCN(c2c(/C=C3\\SC(=O)NC3=O)cccc2-c2ccccc2)C1 [AZD1208] + Cc1nc(NC(=O)N2CCC[C@H]2C(N)=O)sc1-c1ccnc(C(C)(C)C(F)(F)F)c1 [Alpelisib] (partner 2 µM)", "how_it_was_run": "as §1"}}}
{"cell line": "UMC-11", "values": [{"measurement": "relative viability", "setting": "XMD14-99 + Palbociclib; first compound 0.08 µM", "result": 0.34}, {"measurement": "relative viability", "setting": "XMD14-99 + Palbociclib; first compound 0.8 µM", "result": 0.383}, {"measurement": "relative viability", "setting": "XMD14-99 + Palbociclib; first compound 2.53 µM", "result": 0.346}, {"measurement": "relative viability", "setting": "XMD14-99 + Palbociclib; first compound 8 µM", "result": 0.292}, {"measurement": "relative viability", "setting": "XMD14-99 + Decitabine; first compound 0.08 µM", "result": 0.573}, {"measurement": "relative viability", "setting": "XMD14-99 + Decitabine; first compound 0.8 µM", "result": 0.667}, {"measurement": "relative viability", "setting": "XMD14-99 + Decitabine; first compound 2.53 µM", "result": 0.626}, {"measurement": "relative viability", "setting": "XMD14-99 + Decitabine; first compound 8 µM", "result": 0.589}, {"measurement": "relative viability", "setting": "XMD14-99 + Dasatinib; first compound 0.08 µM", "result": 0.441}, {"measurement": "relative viability", "setting": "XMD14-99 + Dasatinib; first compound 0.8 µM", "result": 0.478}, {"measurement": "relative viability", "setting": "XMD14-99 + Dasatinib; first compound 2.53 µM", "result": 0.438}, {"measurement": "relative viability", "setting": "XMD14-99 + Dasatinib; first compound 8 µM", "result": 0.344}, {"measurement": "relative viability", "setting": "AZD1208 + Alpelisib; first compound 0.08 µM", "result": 0.757}, {"measurement": "relative viability", "setting": "AZD1208 + Alpelisib; first compound 0.253 µM", "result": 0.908}, {"measurement": "relative viability", "setting": "AZD1208 + Alpelisib; first compound 0.8 µM", "result": 0.746}, {"measurement": "relative viability", "setting": "AZD1208 + Alpelisib; first compound 2.53 µM", "result": 0.77}, {"measurement": "relative viability", "setting": "AZD1208 + Alpelisib; first compound 8 µM", "result": 0.488}]}
